# Values of other authors as cited in patent US20110052685A1, “GASTRIC RETENTIVE PHARMACEUTICAL COMPOSITIONS FOR IMMEDIATE AND EXTENDED RELEASE OF ACETAMINOPHEN” (DEPOMED, INC., priority 2009, published 2011).
structure (smiles),measurement,setting,value
"CC(=O)Nc1ccc(O)cc1 [acetaminophen, N-(4-hydroxyphenyl)acetamine]",Half-life,"elimination, from Rawlins et al., 1977",(2.7) hr
same,1st Order Elimination Constant K,"from Rawlins et al., 1977",0.257 h⁻¹
same,Oral Bioavaiability F,"from Rawlins et al., 1977",0.89
same,Volume of Distribution V,"from Rawlins et al., 1977",78800 mL
same,Absorption Half-life,"oral immediate release, fed mode",(0.76) hr
same,1st Order Absorption Constant (under fed mode - with food) ka,"oral immediate release, from Divoll et al., 1982",0.912 h⁻¹
